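Results reflect a 48-hour exposure of cells in 96-well plates to compound at five concentrations. TGI is the concentration that stops growth completely.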

Among the test systems are SF-539 CNS; OVCAR-4 ovarian; KM12 colon; HS 578T breast; NCI-H23 lung; SNB-75 CNS; RXF 393 renal; OVCAR-3 ovarian; A549 NSCLC; M14 melanoma; EKVX NSCLC; MDA-MB-435; HCT-15 colon; CCRF-CEM leukemia; DU-145 prostate; HOP-92 NSCLC; 786-0 renal; HCC-2998 colon; NCI-H522 lung; SK-MEL-2 melanoma.
Holding throughout (assay): NCI anticancer screen, dose series, 48 h

For `CC(C)N(c1cc2c(cc1F)c(=O)c(C(=O)O)cn2-c1ccc(N2CCN(C)CC2)cn1)C(C)C`, the TGI with SF-539 CNS, in the experiment on OVCAR-4 ovarian, with KM12 colon, in the experiment on HS 578T breast, in the experiment on NCI-H23 lung and in the experiment with SNB-75 CNS was more than 100 µM in each case. In addition, the TGI with RXF 393 renal, in the experiment with OVCAR-3 ovarian, in the experiment on A549 NSCLC, in the experiment on M14 melanoma, in the experiment on EKVX NSCLC and in the experiment on MDA-MB-435 was more than 100 µM each time. Moreover, the TGI with HCT-15 colon, in the experiment with CCRF-CEM leukemia, with DU-145 prostate, in the experiment with HOP-92 NSCLC and in the experiment on 786-0 renal was more than 100 µM throughout.
`CC(C)C(Cl)CC/C(CBr)=C(\Cl)CCl` (stereo not drawn): the TGI in the experiment with SF-539 CNS came to 29.5 µM; in the experiment with OVCAR-4 ovarian, 7.34 µM; with KM12 colon, 16.4 µM; in the experiment on HCC-2998 colon it was 26.7 µM; with HS 578T breast, 11.8 µM; in the experiment on NCI-H23 lung it was 8.65 µM. For the same molecule, the TGI with SNB-75 CNS stood at 17 µM; in the experiment on NCI-H522 lung it was 2.49 µM; in the experiment with RXF 393 renal it was 11.3 µM; with OVCAR-3 ovarian, 10.4 µM; in the experiment on A549 NSCLC, 36.1 µM; in the experiment with M14 melanoma, 4.06 µM. In addition, the TGI with EKVX NSCLC was found to be 34 µM; in the experiment with MDA-MB-435, 10 µM; in the experiment on HCT-15 colon, 10.4 µM; in the experiment on DU-145 prostate, 26.3 µM; with HOP-92 NSCLC, 7.73 µM; in the experiment on SK-MEL-2 melanoma it was 5.64 µM. Further, in the experiment with 786-0 renal, the TGI was 5.04 µM.
`O=C1CCSc2c(cnc3ccccc23)N1`: the TGI in the experiment on SF-539 CNS, in the experiment on OVCAR-4 ovarian, in the experiment on KM12 colon, in the experiment with HS 578T breast, in the experiment with NCI-H23 lung and in the experiment with SNB-75 CNS was more than 100 µM each time. In addition, the TGI with NCI-H522 lung, with RXF 393 renal, in the experiment on OVCAR-3 ovarian, with A549 NSCLC, with M14 melanoma and in the experiment with EKVX NSCLC was more than 100 µM in each case. Besides, the TGI in the experiment on MDA-MB-435, in the experiment with HCT-15 colon, with CCRF-CEM leukemia, in the experiment with DU-145 prostate, in the experiment on HOP-92 NSCLC and with SK-MEL-2 melanoma was more than 100 µM throughout. In the experiment with 786-0 renal, the TGI was more than 100 µM.
For `O=c1c2c3c(sc2nc2n1N=CN(c1ccc(Cl)cc1)C2)CCCC3`, the TGI in the experiment with OVCAR-4 ovarian is more than 100 µM; with KM12 colon, more than 100 µM; with HCC-2998 colon, 72 µM; in the experiment with HS 578T breast, 36.9 µM; in the experiment on NCI-H23 lung, more than 100 µM; in the experiment with SNB-75 CNS, more than 100 µM. Also, the TGI in the experiment with NCI-H522 lung, in the experiment on RXF 393 renal, with OVCAR-3 ovarian, with A549 NSCLC, in the experiment on M14 melanoma and in the experiment with EKVX NSCLC was more than 100 µM in each case. In addition, the TGI in the experiment with MDA-MB-435, in the experiment with HCT-15 colon, with CCRF-CEM leukemia, in the experiment with DU-145 prostate, in the experiment on HOP-92 NSCLC and with SK-MEL-2 melanoma was more than 100 µM throughout. Moreover, the TGI in the experiment on 786-0 renal was more than 100 µM.
As for `C[C@@H]1OC2(O)[C@@H]3CCCN3C(=O)N(Cc3ccccc3)N2C1=O` (stereo partly drawn), the TGI in the experiment with SF-539 CNS, in the experiment with OVCAR-4 ovarian, in the experiment on KM12 colon, in the experiment on HCC-2998 colon, in the experiment on HS 578T breast and with NCI-H23 lung was more than 100 µM each time. The TGI with SNB-75 CNS is 88.7 µM; with RXF 393 renal, more than 100 µM; in the experiment with OVCAR-3 ovarian it was more than 100 µM; in the experiment on A549 NSCLC it was more than 100 µM; with M14 melanoma, more than 100 µM; in the experiment on EKVX NSCLC, more than 100 µM. Further, the TGI with MDA-MB-435, in the experiment with HCT-15 colon, in the experiment on CCRF-CEM leukemia, in the experiment on DU-145 prostate, in the experiment on HOP-92 NSCLC and with SK-MEL-2 melanoma was more than 100 µM each time. This molecule also came in with a TGI with 786-0 renal of more than 100 µM.
As to `COc1ccc(CCN(C)C(=O)CC(C#N)(c2ccccc2)c2ccc(OC)c(OC)c2)cc1OC` (stereo not drawn), the TGI in the experiment with SF-539 CNS, with OVCAR-4 ovarian, in the experiment with KM12 colon, in the experiment on HS 578T breast, with NCI-H23 lung and in the experiment on SNB-75 CNS was more than 100 µM in each case. Moreover, the TGI with NCI-H522 lung, in the experiment with RXF 393 renal, in the experiment on OVCAR-3 ovarian, in the experiment with A549 NSCLC, with M14 melanoma and in the experiment with EKVX NSCLC was more than 100 µM in each case. In addition, the TGI was more than 100 µM with MDA-MB-435; more than 100 µM in the experiment with HCT-15 colon; more than 100 µM in the experiment on CCRF-CEM leukemia; more than 100 µM in the experiment with DU-145 prostate; more than 76 µM in the experiment on HOP-92 NSCLC; more than 100 µM in the experiment with SK-MEL-2 melanoma. The molecule further returned a TGI with 786-0 renal of more than 100 µM.
As for `CC(C)=CCC[C@@H](C)C1=C(Nc2ccccc2)C(O)=C(C)C(=O)C1=O`, the TGI is more than 43.5 µM in the experiment with OVCAR-4 ovarian; 20.7 µM in the experiment on KM12 colon; more than 41.4 µM with HCC-2998 colon; 9.5 µM in the experiment on HS 578T breast; 12.9 µM with NCI-H23 lung; 15.6 µM in the experiment on SNB-75 CNS. Besides, the TGI in the experiment on NCI-H522 lung was 16.5 µM; in the experiment on RXF 393 renal, 21.3 µM; in the experiment on OVCAR-3 ovarian, 8.97 µM; with A549 NSCLC, 13.5 µM; in the experiment with M14 melanoma, 15.6 µM; in the experiment on EKVX NSCLC, more than 39.4 µM. In addition, the TGI was more than 48.3 µM in the experiment on MDA-MB-435; 13.4 µM in the experiment with HCT-15 colon; 0.874 µM with CCRF-CEM leukemia; 28.2 µM in the experiment on DU-145 prostate; 9.9 µM with HOP-92 NSCLC; 19.8 µM in the experiment with SK-MEL-2 melanoma. In the experiment with 786-0 renal, the TGI was more than 48.5 µM.
As to `CCOC(=O)/C(=C\NC(C)(C)C)c1nc2ccccc2o1`, the TGI is more than 100 µM with SF-539 CNS; more than 100 µM in the experiment with OVCAR-4 ovarian; more than 100 µM with KM12 colon; 63.9 µM with HS 578T breast; more than 100 µM in the experiment with NCI-H23 lung; more than 100 µM in the experiment with SNB-75 CNS. Besides, the TGI is more than 100 µM with NCI-H522 lung; 67.1 µM with RXF 393 renal; more than 100 µM in the experiment on OVCAR-3 ovarian; more than 100 µM in the experiment on A549 NSCLC; more than 100 µM in the experiment on M14 melanoma; more than 100 µM with EKVX NSCLC. For the same molecule, the TGI with MDA-MB-435 was more than 100 µM; in the experiment on HCT-15 colon, more than 100 µM; with CCRF-CEM leukemia it was 54.6 µM; with DU-145 prostate, more than 100 µM; in the experiment with HOP-92 NSCLC, 92.1 µM; in the experiment with 786-0 renal, 70.7 µM.
Take `CCOC(=O)Oc1cc2c(ccn2C)c2c1c1ccccc1n2C(=O)OCC`: the TGI with SF-539 CNS, in the experiment with OVCAR-4 ovarian, with KM12 colon, in the experiment on HS 578T breast, in the experiment on NCI-H23 lung and in the experiment with SNB-75 CNS was more than 100 µM each time. Besides, the TGI in the experiment with NCI-H522 lung, in the experiment on RXF 393 renal, with OVCAR-3 ovarian, in the experiment on A549 NSCLC, in the experiment on M14 melanoma and in the experiment on EKVX NSCLC was more than 100 µM each time. In addition, the TGI with MDA-MB-435, in the experiment on HCT-15 colon, in the experiment on CCRF-CEM leukemia, with DU-145 prostate, in the experiment with HOP-92 NSCLC and in the experiment on SK-MEL-2 melanoma was more than 100 µM in each case. The molecule also showed a TGI in the experiment with 786-0 renal of more than 100 µM.
As to `CC1(C)OC(=O)CC12CCN(Cc1ccccc1)CC2`, the TGI in the experiment on SF-539 CNS, in the experiment on OVCAR-4 ovarian, with HS 578T breast, in the experiment with NCI-H23 lung, in the experiment with SNB-75 CNS and in the experiment on NCI-H522 lung was more than 100 µM throughout. The TGI in the experiment on RXF 393 renal, with OVCAR-3 ovarian, in the experiment on A549 NSCLC, with EKVX NSCLC, with MDA-MB-435 and with HCT-15 colon was more than 100 µM throughout. For the same molecule, the TGI in the experiment on CCRF-CEM leukemia, with DU-145 prostate, with HOP-92 NSCLC, in the experiment on SK-MEL-2 melanoma and with 786-0 renal was more than 100 µM each time.
With `COC(=O)[C@]12CSC[C@H]1C[C@H](c1ccc(N(C)C)cc1)N2`, the TGI in the experiment on SF-539 CNS, in the experiment on OVCAR-4 ovarian, with KM12 colon, in the experiment on HCC-2998 colon, with HS 578T breast and in the experiment on NCI-H23 lung was more than 100 µM throughout. The TGI with SNB-75 CNS, in the experiment on RXF 393 renal, in the experiment with OVCAR-3 ovarian, with A549 NSCLC, in the experiment on M14 melanoma and in the experiment with EKVX NSCLC was more than 100 µM in each case. For the same molecule, the TGI in the experiment on MDA-MB-435, in the experiment with HCT-15 colon, in the experiment with CCRF-CEM leukemia, in the experiment with DU-145 prostate, in the experiment with HOP-92 NSCLC and in the experiment on SK-MEL-2 melanoma was more than 100 µM each time. Besides, the TGI with 786-0 renal is more than 100 µM.
For the molecule `CC(Oc1ccc(Cl)cc1Cl)C(=O)NN1C(=O)CSC1c1ccc(Cl)cc1` (stereo not drawn), the TGI is 43.9 µM in the experiment with SF-539 CNS; more than 100 µM in the experiment with OVCAR-4 ovarian; more than 100 µM in the experiment with KM12 colon; more than 100 µM in the experiment with HCC-2998 colon; more than 100 µM in the experiment on HS 578T breast; more than 100 µM in the experiment on NCI-H23 lung. The TGI in the experiment on SNB-75 CNS was 72.7 µM; in the experiment with NCI-H522 lung, more than 100 µM; with RXF 393 renal, 83.4 µM; in the experiment with OVCAR-3 ovarian, more than 100 µM; in the experiment with A549 NSCLC, more than 100 µM; with M14 melanoma, more than 100 µM. Further, the TGI was more than 100 µM in the experiment on EKVX NSCLC; more than 100 µM with MDA-MB-435; more than 100 µM with HCT-15 colon; more than 100 µM in the experiment with DU-145 prostate; 66.3 µM in the experiment on HOP-92 NSCLC; more than 100 µM in the experiment on SK-MEL-2 melanoma. Moreover, in the experiment on 786-0 renal, the TGI was more than 100 µM.
